Data reported in patent publication US12629388B2, “Intradialytic use of sodium nitrite” (Hope Medical Enterprises, Inc., priority 2017, dated 2026).
Like-named read-outs stand apart in the source and are kept apart here.

Experiments:
[1] = Experimental: Example 1 was performed to determine the stability of sodium nitrite in aqueous solution when acid is added. A 100 mL sample of sodium nitrite solution with a concentration of 30 mg/mL was tested for the presence of nitrogen oxide gases (NO, NO2, N2O3, and N2O4) using an Orion Model 95-46 Nitrogen Oxide (NOx) electrode and a pH meter. With constant stirring, the mV reading with the NOx electrode and pH reading with the pH electrode were recorded after successive additions of 100 μL of either 0.02 N or 1 N hydrochloric acid.
[2] = dialysate bicarbonate concentrate; for Nitrite Concentration by Assay: room temperature, expected 38.1 mg/L
Experimental: (§1) Concentration of nitrite in samples was assayed by ion chromatography. The ion chromatograph was equipped with a conductivity detector, self-regenerating suppression system, eluent generator, and a Dionex IonPacAS19 analytical column. The nitrite concentration in the samples was measured and calculated against an external sodium nitrite standard. USP Sodium Nitrite Reference Standard (Item Number 1614454) was the testing standard (United States Pharmacopeia. Rockville, Maryland).
Example 2 was performed to determine the stability of sodium nitrite in dialysate bicarbonate concentrate solution. At room temperature, 300 mg sodium nitrite was added to 7,700 mL of dialysate bicarbonate concentrate solution. The nitrite concentration of the dialysate bicarbonate concentrate solution was analyzed by ion chromatography 1) before addition of sodium nitrite; 2) 5 minutes after the addition of sodium nitrite; and 3) 2 hours after the addition of sodium nitrite.

[3] = mixed dialysate exiting Fresenius 2008K hemodialysis machine; expected 1.46 mg/L
Experimental: as §1
The machine was primed in bypass mode (dialysate and ultrafiltration rates set at zero) using normal saline.

[4] = pre-mixed 1 L dialysate, pH 7.32 at 24.4° C. after addition; expected 2.997 mg/L
Experimental: as §1

[5] = for Nitrite Concentration After Addition of Sodium Nitrite (Time = 60 Min): average of two samples
Experimental: as §1
Dialysate bicarbonate concentrate solution was prepared by adding 1 package of Centrisol® MB-330 Series Sodium Bicarbonate Concentrate powder (650 g) to 7.7 liters of purified water.
The hemodialysis machine mixed the bicarbonate concentrate solution and acid concentrate solution with the dilution ratio of 1 part of an acid concentrate solution, 1.72 parts of a bicarbonate concentrate solution, and 42.38 parts of purified water. The machine was primed in bypass mode (dialysate and ultrafiltration rates set at zero) using normal saline. After priming, the hemodialysis machine was run in “Therapy Mode” with the following settings: blood flow rate 300 ml/minute, dialysate flow rate 600 mL/minute, ultrafiltration rate 0 mL/minute.
An aqueous solution of sodium nitrite was prepared by dissolving 3 mg of sodium nitrite in 1 liter of purified water. […] This valve was placed in the dialysate tubing approximately eight inches upstream of the dialyzer (pre-filter). Two sampling ports were placed four inches upstream (pre-dialyzer sampling port) and ten inches downstream (post-dialyzer sampling port) from the dialyzer to collect samples of dialysate for […] assay by ion chromatography.
The infusion pump infused the sodium nitrite solution into the tubing through the valve at a rate of 250 mL/hour (4.16 mL/minute).
Normal saline flowed into the dialyzer at a rate of 300 mL/minute from the Arterial line and exited the dialyzer through the Venous line. Samples of saline were collected from the venous side of the dialyzer.

[6] = during the first hour of hemodialysis; cited from earlier work

For `O=NO` [Sodium Nitrite, sodium nitrite], which “pH at which nitrogen oxides was detected” value ([1]; 30 mg/mL solution, successive addition of hydrochloric acid, detection limit 1 ppm NOx) is on record?
Its value is 6.7.

What about the “initial pH of the sodium nitrite solution” value ([1]; 100 mL solution, 30 mg/mL, before acid addition) of the same compound?
Its value is 8.73.

What about the “response of the Nitrogen Oxide electrode” value ([1]; at pH 4.9) of the same compound?
Its value is 99.5 mV.

And the “response of the Nitrogen Oxide electrode” value ([1]; at pH 6.7)?
Its value is 8.0 mV.

And the “stability on exposure to acid (in words)” value ([1]; extent of decomposition generally inversely proportional to the pH)?
The value was “decomposes when exposed to acid”.

What about the “Nitrate Concentration” value ([2]; 5 minutes after addition) of the same compound?
The value was “None”.

What about the “Nitrite Concentration by Assay” value ([2]; 5 minutes after addition) of the same compound?
Its value is 38.0 mg/L.

What about the “Nitrate Concentration” value ([2]; 2 hours after addition) of the same compound?
The value was “None”.

What about the “Nitrite Concentration by Assay” value ([2]; 2 hours after addition) of the same compound?
The value was 38.5 mg/L.

What about the “Nitrite Concentration by Assay” value [3] of the same compound?
Its value is “None”.

And the “Nitrite Concentration by Assay” value [4]?
The value was 1.149 mg/L.

What about the “Nitrite Concentration After Addition of Sodium Nitrite (Time = 60 Min)” value (“Nitrite Concentration After Addition” for short) ([5]; dialysate after dialyzer) of the same compound?
Its value is 235 nM.

And the “Nitrite Concentration After Addition” value ([5]; dialysate before dialyzer, 3 mg/L solution infused at 250 mL/hour, dialysate flow 600 mL/minute)?
Its value is 451 nM.

What about the “stability when mixed with dialysate within dialysate tubing (in words)” value ([5]; infused between the hemodialysis machine and the dialyzer membrane) of the same compound?
Its value is “stable”.

What about the “Nitrite Concentration After Addition” value ([5]; saline solution after dialyzer (venous side)) of the same compound?
The value was 183 nM.

And the “decline of the concentration of nitrite in the plasma” value [6]?
The value was “over 60%”.
